Reference: US20110076332A1, “Dextran-chitosan based in-situ gelling hydrogels for biomedical applications” (priority 2009, published 2011)

Test system: Staphylococcus aureus (S. aureus)
Experiment: Bacterial attachment and biofilm formation on hydrogels in 96-well plates, MTS assay
Type: cell-based
Conditions: whether or not a hydrogel was present
Description: Determination of bacteriostatic action against S. Aureus bacteria: Staphylococcus aureus (S. aureus) was used to study the resistance of selected dextran-chitosan hydrogels of the present invention to bacterial attachment and biofilm formation. Six different types of gels, having different chitosan-to-dextran ratios, proteins and bactericidal drugs, with six replicates each, were prepared in 96-well plates under sterile conditions. FIG. 18 is a bar chart showing the relative extent of bacterial growth, as estimated by MTS assay, for the various cases studied.
The chitosan and dextran solutions used in this study were prepared as described above. With reference to the labels used in FIG. 17, hydrogels were prepared with chitosan-dextran ratios of 1:1 (“1:1”), 2:1 (“2:1”) and 3:1 (“3:1”). Wells with chitosan sheets alone (“CS”), empty wells (“10̂8”), wells with vancomycin alone (“10̂8+VMC”) and wells with PBS alone (“PBS”) were used as controls. Additional hydrogels having chitosan-dextran ratios of 2:1 were prepared with fibronectin (“2:1+FN”), vancomycin (“2:1+VMC”) or both (“2:1+FN+VMC”) were also studied to understand the effect of drug loading and release on bacterial colony formation.
For the study, triplicate plates of each combination were seeded with S. aureus at a concentration of 1.0×10^8 bacteria/ml. The bacteria were allowed to attach and grow overnight (16 hours). […]

Q: `CN[C@H](CC(C)C)C(=O)N[C@H]1C(=O)N[C@@H](CC(N)=O)C(=O)N[C@H]2C(=O)N[C@H]3C(=O)N[C@H](C(=O)N[C@H](C(=O)O)c4cc(O)cc(O)c4-c4cc3ccc4O)[C@H](O)c3ccc(c(Cl)c3)Oc3cc2cc(c3O[C@@H]2O[C@H](CO)[C@@H](O)[C@H](O)[C@H]2O[C@H]2C[C@](C)(N)[C@H](O)[C@H](C)O2)Oc2ccc(cc2Cl)[C@H]1O` [vancomycin] was tested. Which bacterial colony formation did it give?
A: reduced bacterial colony formation
